Data as given in patent US7112605B2, “Sulfonyl-containing 3,4-diaryl-3-pyrrolin-2-ones, preparation method, and medical use thereof” (Research Institute of Materia Medica Chinese Acadamy of …, priority 2002, dated 2006).
pIC50: −log10 of the molar value. Read-outs that look alike come from different tables or passages of the source.

Experiments:
[1] = biological target: T1, Cyclooxygenase-2 (Mus musculus, UniProt Q05769); assay: COX-2 assay: LPS-stimulated PGE2 production in mouse peritoneal macrophages (RIA); format: cell-based, mice; settings: for pIC50: mouse peritoneal macrophages, LPS 1 mg/L 9 h, PGE2 by RIA; for COX-1/COX-2: ratio of IC50 COX-1 to IC50 COX-2
T1 construct: endogenous in cells; host or cells: thioglycollate-elicited peritoneal macrophages of male C57BL-6J mice
T1 sequence (Q05769 18-604): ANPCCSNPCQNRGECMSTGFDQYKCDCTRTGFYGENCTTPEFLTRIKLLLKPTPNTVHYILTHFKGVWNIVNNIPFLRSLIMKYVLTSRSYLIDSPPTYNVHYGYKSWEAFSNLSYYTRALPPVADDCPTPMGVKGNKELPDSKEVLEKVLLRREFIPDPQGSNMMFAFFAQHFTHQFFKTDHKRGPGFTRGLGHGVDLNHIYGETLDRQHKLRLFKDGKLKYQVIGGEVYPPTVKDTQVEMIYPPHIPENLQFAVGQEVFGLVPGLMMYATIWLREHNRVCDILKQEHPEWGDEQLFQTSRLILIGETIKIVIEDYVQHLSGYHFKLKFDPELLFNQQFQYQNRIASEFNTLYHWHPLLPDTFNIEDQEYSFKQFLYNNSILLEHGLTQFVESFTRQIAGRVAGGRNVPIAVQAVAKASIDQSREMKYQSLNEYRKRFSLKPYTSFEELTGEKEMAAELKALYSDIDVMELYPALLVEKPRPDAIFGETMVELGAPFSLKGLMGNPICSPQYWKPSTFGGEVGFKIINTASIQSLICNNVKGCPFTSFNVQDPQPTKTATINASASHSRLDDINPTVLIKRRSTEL
Method: Cell culture: Adherent macrophages were harvested from the peritoneal cells of male mice (C57BL-6J, Level 2, from Experiment Animal Center, Academy of Military Medical Science) 3 d after the injection (ip) of brewer thioglycollate medium (5 mL/100 g body weight). […] After settlement for 2˜3 h, non-adherent cells were washed by D-Hanks' balanced salt solution. […] Cell viability was examined by trypan blue dye exclusion. All incubation procedures were performed with 5% CO2 in humidified air at 37° C.
COX-2 assay: Macrophages were incubated with test compound at different concentrations or solvent (Me2SO) for 1 h and were stimulated with LPS 1 mg/L for 9 h. The amount of PGE2 in supernatants was measured by RIA. The inhibitory ratio was calculated using the same formula as in COX-1 assay section. Cs, Ct, Cc refer to PGE2 concentration in supernatants of LPS, test compound, and control groups, respectively.
(§1) [formula] Cs, Ct, Cc refer to 6-keto-PGF1[…] concentration in supernatants of calcimycin, test compound, and control groups, respectively.
(§2) Statistical analysis: Data were expressed as the mean±SD of more than three independent experiments. Dose-inhibitory effect curves were fit through “uphill dose response curves, variable slope” using Prism, GraphPad version3.00: […]

[2] = biological target: T2, Cyclooxygenase-1 (Mus musculus, UniProt P22437); assay: COX-1 assay: calcimycin-stimulated 6-keto-PGF1 production in mouse peritoneal macrophages (RIA); format: cell-based, mice; settings: calcimycin 1 μmol/L 1 h, 6-keto-PGF1 by RIA
T2 construct: endogenous in cells; host or cells: thioglycollate-elicited peritoneal macrophages of male C57BL-6J mice
T2 sequence (P22437 27-602): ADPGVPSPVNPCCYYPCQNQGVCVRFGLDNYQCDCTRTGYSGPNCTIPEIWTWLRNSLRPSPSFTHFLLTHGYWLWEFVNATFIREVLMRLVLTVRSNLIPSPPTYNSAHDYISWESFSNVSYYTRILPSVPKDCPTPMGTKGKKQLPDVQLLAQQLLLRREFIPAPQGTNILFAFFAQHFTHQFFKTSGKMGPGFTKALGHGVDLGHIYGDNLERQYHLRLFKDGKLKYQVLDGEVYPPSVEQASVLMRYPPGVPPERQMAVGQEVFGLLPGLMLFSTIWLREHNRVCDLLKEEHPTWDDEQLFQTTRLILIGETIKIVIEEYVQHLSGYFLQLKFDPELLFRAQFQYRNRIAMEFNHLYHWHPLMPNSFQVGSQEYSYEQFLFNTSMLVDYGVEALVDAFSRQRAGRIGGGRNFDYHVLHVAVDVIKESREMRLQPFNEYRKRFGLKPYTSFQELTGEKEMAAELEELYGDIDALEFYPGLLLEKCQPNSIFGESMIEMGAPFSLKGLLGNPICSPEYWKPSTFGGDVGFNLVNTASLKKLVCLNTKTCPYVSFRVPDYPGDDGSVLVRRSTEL
Method: Cell culture: Adherent macrophages were harvested from the peritoneal cells of male mice (C57BL-6J, Level 2, from Experiment Animal Center, Academy of Military Medical Science) 3 d after the injection (ip) of brewer thioglycollate medium (5 mL/100 g body weight). Shortly, peritoneal cells obtained from 3˜4 mice were mixed and seeded in 48 well cell culture cluster (Costar) at a cell density of 1×10^9 cell/L in RPMI-1640 supplemented with 5% (v/v) newborn calf serum, 100 ku/L penicillin and […] streptomycin. After settlement for 2˜3 h, non-adherent cells were washed by D-Hanks' balanced salt solution. Then macrophages were cultured in RPMI-1640 without serum. Almost all of adherent cells were macrophages as assessed by Giemsa staining. Cell viability was examined by trypan blue dye exclusion. All incubation procedures were performed with 5% CO2 in humidified air at 37° C.
COX-1: assay Macrophages were incubated with test compound at different concentrations or solvent (Me2SO) for 1 h and were stimulated with calcimycin 1 μmol·L^−1 for 1 h. The amount of 6-keto-PGF1[…] (a stable metabolite of PGI2) in supernatants was measured by RIA according to manufacturer's guide. The inhibitory ratio was calculated as
as §1, §2

[3] = test system: rat carrageenan-induced foot pad edema; assay: Rat carrageenan-induced foot pad edema assay; format: in vivo, rats; settings: 10 mg/kg oral
Method: Male Sprgue-Dawley rats (190–220 g) were fasted with free access to water at least 16 h prior to experiments. The rats were dosed orally with a 1 ml suspension of test compound in vehicle (0.5% methyl cellulose and 0.025% Tween-20) or with vehicle alone. One hour later a subplantar injection of 0.1 ml of 1% solution of caarageenan in 0.9% strile saline was administered to the right hind foot pad. Paw volume was measured with a displacement plethysmometer 2, 3, and 4 h after caarageenan injection.

[4] = 3 h after carrageenan, read-out: inhibitory percentage of edema, 3 hr
[5] = 4 h after carrageenan, read-out: inhibitory percentage of edema, 4 hr

CN1CC(c2ccc(S(C)(=O)=O)cc2)=C(c2ccc(Cl)cc2)C1=O [Example 117, N-Methyl-3-(4-chlorophenyl)-4-(4-methylsulfonylphenyl)-2,5-dihydropyrrole-2-one]
pIC50 [1]: 7.62 | COX-1/COX-2 [1]: 6.6 | pIC50 [2]: 6.80 | inhibition at 10 mg/kg [3, 4]: 48.2% | inhibition at 10 mg/kg [3, 5]: 59.3%

CN1CC(c2ccc(S(C)(=O)=O)cc2)=C(c2ccc(Br)cc2)C1=O [Example 119, N-Methyl-3-(4-bromophenyl)-4-(4-methylsulfonylphenyl)-2,5-dihydropyrrole-2-one]
pIC50 [1]: 7.93 | COX-1/COX-2 [1]: 4.9 | pIC50 [2]: 7.24 | inhibition at 10 mg/kg [3, 4]: 48% | inhibition at 10 mg/kg [3, 5]: 49.8%

CN1CC(c2ccc(S(C)(=O)=O)cc2)=C(c2ccc(F)cc2)C1=O [Example 120, N-Methyl-3-(4-fluorophenyl)-4-(4-methylsulfonylphenyl)-2,5-dihydropyrrole-2-one]
pIC50 [1]: 7.86 | COX-1/COX-2 [1]: 14.5 | pIC50 [2]: 6.70 | inhibition at 10 mg/kg [3, 4]: 39.2% | inhibition at 10 mg/kg [3, 5]: 26.2%

CCCN1CC(c2ccc(S(C)(=O)=O)cc2)=C(c2ccc(C)cc2)C1=O [Example 122, N-Propyl-3-(4-methylphenyl)-4-(4-methylsulfonylphenyl)-2,5-dihydropyrrole-2-one]
pIC50 [1]: 7.82 | pIC50 [2]: 7.04 | inhibition at 10 mg/kg [3, 4]: 57.2% | inhibition at 10 mg/kg [3, 5]: 59.3%

CCCN1CC(c2ccc(S(C)(=O)=O)cc2)=C(c2ccc(F)cc2)C1=O [Example 123, N-Propyl-3-(4-fluorophenyl)-4-(4-methylsulfonylphenyl)-2,5-dihydropyrrole-2-one]
pIC50 [1]: 7.54 | pIC50 [2]: 6.30 | inhibition at 10 mg/kg [3, 4]: 49.6% | inhibition at 10 mg/kg [3, 5]: 50.3%

CCCN1CC(c2ccc(S(C)(=O)=O)cc2)=C(c2ccc(Cl)cc2)C1=O [Example 124, N-Propyl-3-(4-chlorophenyl)-4-(4-methylsulfonylphenyl)-2,5-dihydropyrrole-2-one]
pIC50 [1]: 7.61 | pIC50 [2]: 8.10 | inhibition at 10 mg/kg [3, 4]: 39.4% | inhibition at 10 mg/kg [3, 5]: 32.7%

Cc1ccc(C2=C(c3ccc(S(C)(=O)=O)cc3)CN(C3CC3)C2=O)cc1 [Example 125, N-Cyclopropyl-3-(4-methylphenyl)-4-(4-methylsulfonylphenyl)-2,5-dihydropyrrole-2-one]
pIC50 [1]: 7.02 | COX-1/COX-2 [1]: 2.5 | pIC50 [2]: 6.63 | inhibition at 10 mg/kg [3, 4]: 34.1% | inhibition at 10 mg/kg [3, 5]: 31.1%

CS(=O)(=O)c1ccc(C2=C(c3ccccc3)C(=O)OC2)cc1 [Rofecoxib, reference compound]
pIC50 [1]: 8.02 | pIC50 [2]: < 5.00 | inhibition at 10 mg/kg [3, 4]: 45.9% | inhibition at 10 mg/kg [3, 5]: 50.2%
